Test results taken from paper PMC12441834, “Highly Potent and Subtype-Selective Sperm-Specific Potassium Channel SLO3 Inhibitors Display High Tissue Exposure in the Murine Female Reproductive Tract” (ACS Pharmacology & Translational Science, 2025).
Like-named read-outs stand apart in the source and are kept apart here.

Experiments:
human SLO3 [1] = target: T1, human SLO3 (Homo sapiens, UniProt A8MYU2); test: SLO3 patch-clamp electrophysiology, human SLO3-γ2 expressed in HEK293 cells; type: cell-based; conditions: transfected HEK293 cells (human SLO3-γ2), whole-cell patch clamp, currents at +100 mV; read-out: hSLO3 IC50
T1 construct: expressed in transfected cells
T1 sequence (A8MYU2 1-1149): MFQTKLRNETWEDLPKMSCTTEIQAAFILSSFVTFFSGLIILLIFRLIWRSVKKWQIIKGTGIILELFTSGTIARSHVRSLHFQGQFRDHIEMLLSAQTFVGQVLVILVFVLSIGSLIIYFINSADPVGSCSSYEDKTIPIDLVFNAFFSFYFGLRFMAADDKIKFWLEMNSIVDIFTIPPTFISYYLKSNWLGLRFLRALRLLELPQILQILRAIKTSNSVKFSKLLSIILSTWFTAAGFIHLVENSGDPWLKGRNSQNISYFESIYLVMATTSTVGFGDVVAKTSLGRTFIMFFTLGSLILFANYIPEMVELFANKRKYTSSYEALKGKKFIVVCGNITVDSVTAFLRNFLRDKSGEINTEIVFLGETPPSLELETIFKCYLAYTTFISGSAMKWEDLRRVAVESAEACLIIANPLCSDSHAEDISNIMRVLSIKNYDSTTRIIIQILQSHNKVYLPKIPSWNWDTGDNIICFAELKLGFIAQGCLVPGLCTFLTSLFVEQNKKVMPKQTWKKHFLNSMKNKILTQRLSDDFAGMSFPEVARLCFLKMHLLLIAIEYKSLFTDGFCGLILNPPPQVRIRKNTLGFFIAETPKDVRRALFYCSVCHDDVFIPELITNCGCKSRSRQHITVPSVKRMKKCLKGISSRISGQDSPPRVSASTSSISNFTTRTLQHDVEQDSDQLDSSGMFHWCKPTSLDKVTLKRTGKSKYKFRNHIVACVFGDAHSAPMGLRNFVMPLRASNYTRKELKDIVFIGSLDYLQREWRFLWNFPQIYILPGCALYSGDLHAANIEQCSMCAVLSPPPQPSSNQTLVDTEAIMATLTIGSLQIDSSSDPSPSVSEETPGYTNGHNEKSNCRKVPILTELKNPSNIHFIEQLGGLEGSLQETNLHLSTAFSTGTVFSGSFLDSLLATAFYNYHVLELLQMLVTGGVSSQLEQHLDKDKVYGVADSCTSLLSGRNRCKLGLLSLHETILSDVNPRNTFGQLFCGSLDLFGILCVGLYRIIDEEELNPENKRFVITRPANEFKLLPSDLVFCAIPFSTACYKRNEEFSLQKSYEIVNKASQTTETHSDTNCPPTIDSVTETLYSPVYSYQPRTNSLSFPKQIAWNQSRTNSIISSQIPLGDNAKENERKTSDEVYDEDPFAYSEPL
T1 sequence (Q8N7C0 24-313 partner): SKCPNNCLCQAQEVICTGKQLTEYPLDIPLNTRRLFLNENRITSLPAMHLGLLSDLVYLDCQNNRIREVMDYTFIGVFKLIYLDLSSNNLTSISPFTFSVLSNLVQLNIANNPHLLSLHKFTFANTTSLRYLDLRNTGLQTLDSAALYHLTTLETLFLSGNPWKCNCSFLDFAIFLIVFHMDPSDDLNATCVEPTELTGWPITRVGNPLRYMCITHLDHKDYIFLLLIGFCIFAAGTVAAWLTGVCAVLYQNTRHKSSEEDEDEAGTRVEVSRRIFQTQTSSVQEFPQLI
Description: (§1) HEK293 cells were transfected with the bicistronic vector pBUD-CE4.1 containing the genes of interest and a gene conferring antibiotic resistance. Cells were exposed to gradients of selection antibiotics, and optimal growth conditions for the stable lines were as follows: SLO3 and γ2 (SLO3-γ2) supplemented with 700 μg/mL Zeocin (Invitrogen); human SLO1 and β1 (SLO1-β1) with 1 mg/mL G418 (Sigma) and 3 μg/mL puromycin (Corning, Thermo Fisher); and human SLO1 and β4 (SLO1-β4) with 250 μg/mL Zeocin and 3 μg/mL puromycin. All cell lines were grown in Dulbecco’s Modified Eagle Medium (Gibco, Thermo Fisher) supplemented with 10% fetal bovine serum, 1% penicillin–streptomycin (Millipore Sigma), and selection antibiotics. To generate cells expressing SLO1 and γ2, stable SLO1-expressing HEK293 cells were transiently transfected with expression vectors for γ2 and green fluorescent protein (GFP) in the presence of lipofectamine (Invitrogen) for 5 h.
(§2) The cells were then washed and incubated in supplemented Dulbecco’s Modified Eagle Medium for 48 h before use. Patch-clamp electrophysiology was performed only on cells expressing GFP.
(§3) Currents in HEK293 cells were measured in the whole-cell patch-clamp configuration with an Axopatch 200B amplifier, digitized with a Digidata 1440A, and interfaced with Clampex 10.6.0.13 (Molecular Devices). […] An isolated cell was located on an Axiovert 200 microscope (Zeiss), and a gigaohm seal was formed with a borosilicate pipette with resistance between 3 and 6 MΩ and filled with internal solution (140 mM KMeSO3, 10 mM HEPES, 10 mM MES, 1 mM EGTA, pH 7). The seal was then broken by applying a negative pressure. Cells were kept at a holding potential of −60 mV for 50 ms, tested with a stepped voltage protocol from −80 to +150 mV in 10 mV increments for 100 ms, and then dropped to −40 mV for 50 ms with 2.5 s between sweeps. This protocol was used to record currents present with increasing concentration of our compound of interest or 3 μL/mL vehicle (DMSO) in the bath solution. Individual cells were tested with between 1 and 5 concentrations of the compound of interest or until the patch was lost. Currents were allowed to stabilize before the initial recording and after the perfusion solution was changed before recording.
Data were analyzed with a pClamp 10.6 (Molecular Devices). VU6047606 and VU6032735 inhibition dose–response relationships were fit by the Hill equation in OriginPro 7.5 (OriginLab Corporation): R=1/1+(C/IC50)^n+Ioff , in which R is fractional unblock, C is compound concentration, IC50 is the half inhibition concentration, n is the Hill coefficient, and I off is an offset item for leak current. Error bars in the figures represent the SDs. Each data point is averaged from at least 5 measurements. Curve-fitting results are reported as the fitted values with standard error, which was estimated by OriginPro according to the Error Propagation formula.

hERG [2] = target: T2, hERG (Homo sapiens, UniProt Q12809); test: hERG patch clamp electrophysiology (HEK-293-hERG); type: cell-based; conditions: for selectivity ratio: human, HEK-293 cells stably expressing hERG, pH 7.35, hERG IC50 / hSLO3 IC50, read-out: hERG selectivity [fold] (SLO3 versus hERG); for IC50: whole-cell patch clamp, HEK-293-hERG
T2 construct: expressed in transfected cells
Description: Whole-cell patch-clamp electrophysiology was used to record hERG currents from a stably transfected monoclonal cell line expressing human hERG. The HEK-293-hERG cell line was generously provided by Dr. David Weaver (Vanderbilt University). Cells were cultured in a 5% CO2 incubator at 37 °C, dissociated with 0.25% Trypsin-EDTA, and seeded onto 12 mm circular coverslips (Electron Microscopy Sciences, PA, USA) for same-day whole-cell patch-clamp recordings. hERG currents were recorded at room temperature by using an AxoPatch 200B amplifier with Clampex 10.7 software (Molecular Devices, USA). The voltage-clamp protocol consisted of a 4-s step to +30 mV from a −80 mV holding potential, followed by a 4-s step to −40 mV, repeated every 10 s. Data were sampled at 5 kHz and filtered at 1 kHz. Patch pipettes, pulled from 1.5 mm OD thin-walled capillaries (Warner Instruments, MA, USA) using a Sutter P-1000 puller (Sutter Instrument, CA, USA), had resistances of 2–3 MΩ when filled with intracellular solution containing (mM): 135 KCl, 10 HEPES, 1 EGTA, 2 MgCl2, 2 Na2ATP (pH 7.35, adjusted with KOH). The extracellular solution contained (mM): 135 NaCl, 5 KCl, 2 CaCl2, 1 MgCl2, 5 Glucose, 10 HEPES, and 10 Sucrose (pH 7.35, adjusted with NaOH). After establishing stable baseline hERG currents, cells were perfused with compounds at concentrations of 0.03–30 μM until response saturation (typically 2–8 min). Recordings concluded with a 10 μM Quinidine solution to isolate Quinidine-sensitive currents, with compound responses expressed as fractions of this current. Peak “tail” current amplitudes at the beginning of −40 mV steps were analyzed using Clampfit 11.2 (Molecular Devices). IC50 values were calculated by fitting the Hill equation to concentration–response curves (CRCs) using the built-in Y = Bottom + (Top – Bottom)/(1 + (IC50/X)^HillSlope) model (nonlinear regression fit: [Inhibitor] vs response – Variable slope (four parameters)) in GraphPad Prism 10.4 (GraphPad Software).

hSLO1 [3] = target: T3, hSLO1 (Homo sapiens, UniProt Q12791); test: SLO1 inhibition in HEK cells; type: cell-based; conditions: for SLO1 selectivity (fold selective for SLO3): SLO1 IC50 / hSLO3 IC50
T3 construct: expressed in transfected cells; host or cells: HEK293
Description: as §1, §2, §3

human SLO3 [4] = target: T1, human SLO3; set-up: method as in PMID 36649421; conditions: earlier work of the Santi Lab; cited from earlier work
hERG [5] = target: T2, hERG; set-up: method as in PMID 36649421; conditions: cited from earlier work
hSLO1 [6] = target: T3, hSLO1; set-up: method as in PMID 36649421; conditions: cited from earlier work

T3 sequence (Q12791 whole entry): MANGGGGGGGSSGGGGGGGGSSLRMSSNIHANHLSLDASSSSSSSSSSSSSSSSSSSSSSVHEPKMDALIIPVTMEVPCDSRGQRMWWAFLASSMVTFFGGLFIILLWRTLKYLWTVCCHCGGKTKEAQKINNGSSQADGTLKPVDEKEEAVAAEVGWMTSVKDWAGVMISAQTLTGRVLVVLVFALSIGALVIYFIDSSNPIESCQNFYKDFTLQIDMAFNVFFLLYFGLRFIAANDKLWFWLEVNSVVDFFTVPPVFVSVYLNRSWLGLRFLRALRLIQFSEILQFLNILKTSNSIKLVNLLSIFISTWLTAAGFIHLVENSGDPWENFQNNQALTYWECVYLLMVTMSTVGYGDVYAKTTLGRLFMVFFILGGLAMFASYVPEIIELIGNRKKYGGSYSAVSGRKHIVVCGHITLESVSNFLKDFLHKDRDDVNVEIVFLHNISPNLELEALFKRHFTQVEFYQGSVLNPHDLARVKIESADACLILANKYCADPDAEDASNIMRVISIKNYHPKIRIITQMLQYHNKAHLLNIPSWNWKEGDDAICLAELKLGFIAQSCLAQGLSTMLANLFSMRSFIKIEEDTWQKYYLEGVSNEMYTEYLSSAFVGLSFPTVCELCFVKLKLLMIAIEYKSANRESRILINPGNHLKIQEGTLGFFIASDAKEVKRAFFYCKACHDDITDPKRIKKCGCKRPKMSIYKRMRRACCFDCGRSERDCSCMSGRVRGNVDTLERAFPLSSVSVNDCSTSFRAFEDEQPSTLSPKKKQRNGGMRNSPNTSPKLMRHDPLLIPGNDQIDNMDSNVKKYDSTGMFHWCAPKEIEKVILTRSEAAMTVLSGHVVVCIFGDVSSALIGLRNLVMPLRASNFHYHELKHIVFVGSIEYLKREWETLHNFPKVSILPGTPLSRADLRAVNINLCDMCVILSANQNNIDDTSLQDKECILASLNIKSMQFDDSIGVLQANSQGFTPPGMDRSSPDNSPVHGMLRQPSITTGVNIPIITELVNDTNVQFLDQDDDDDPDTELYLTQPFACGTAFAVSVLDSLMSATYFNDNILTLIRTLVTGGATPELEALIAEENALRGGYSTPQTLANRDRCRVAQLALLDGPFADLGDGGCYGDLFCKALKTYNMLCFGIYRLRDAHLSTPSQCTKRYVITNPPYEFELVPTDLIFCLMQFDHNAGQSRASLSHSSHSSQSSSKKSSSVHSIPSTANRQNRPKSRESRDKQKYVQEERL
T2 sequence (Q12809 whole entry): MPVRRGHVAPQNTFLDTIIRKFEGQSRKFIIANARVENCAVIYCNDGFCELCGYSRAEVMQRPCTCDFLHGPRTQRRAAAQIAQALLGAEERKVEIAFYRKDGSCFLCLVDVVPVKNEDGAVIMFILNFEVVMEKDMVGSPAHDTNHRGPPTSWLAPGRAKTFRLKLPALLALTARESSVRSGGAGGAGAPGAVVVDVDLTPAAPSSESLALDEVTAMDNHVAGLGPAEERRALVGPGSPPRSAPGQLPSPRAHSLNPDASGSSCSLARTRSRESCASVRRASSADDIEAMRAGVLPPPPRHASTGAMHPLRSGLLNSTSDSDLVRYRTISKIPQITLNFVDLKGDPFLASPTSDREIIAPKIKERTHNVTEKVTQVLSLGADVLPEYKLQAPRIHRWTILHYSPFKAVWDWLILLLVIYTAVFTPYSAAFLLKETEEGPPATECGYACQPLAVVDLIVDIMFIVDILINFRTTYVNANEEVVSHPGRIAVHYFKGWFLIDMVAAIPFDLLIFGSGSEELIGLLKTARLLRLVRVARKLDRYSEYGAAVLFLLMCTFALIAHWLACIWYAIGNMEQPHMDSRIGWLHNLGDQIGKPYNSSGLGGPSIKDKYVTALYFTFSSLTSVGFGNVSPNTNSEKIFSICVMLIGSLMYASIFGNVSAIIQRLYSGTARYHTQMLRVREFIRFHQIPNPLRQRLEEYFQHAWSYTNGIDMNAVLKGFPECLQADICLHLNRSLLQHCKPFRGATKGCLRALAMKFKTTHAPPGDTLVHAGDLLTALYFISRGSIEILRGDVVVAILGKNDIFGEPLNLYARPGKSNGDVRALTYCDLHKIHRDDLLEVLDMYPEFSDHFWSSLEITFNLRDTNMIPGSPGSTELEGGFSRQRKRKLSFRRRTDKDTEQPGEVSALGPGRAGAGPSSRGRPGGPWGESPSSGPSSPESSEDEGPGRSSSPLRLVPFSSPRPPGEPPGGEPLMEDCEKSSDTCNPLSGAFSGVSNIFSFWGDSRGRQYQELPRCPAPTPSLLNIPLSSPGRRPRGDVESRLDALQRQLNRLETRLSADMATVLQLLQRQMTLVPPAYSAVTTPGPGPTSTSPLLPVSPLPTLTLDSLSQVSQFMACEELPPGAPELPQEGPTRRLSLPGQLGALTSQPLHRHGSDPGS

Structure (SMILES)	IC50 (human SLO3 [1]) [nM]	selectivity ratio (hERG [2])	IC50 (hERG [2]) [nM]	IC50 (hSLO1 [3]) [nM]	SLO1 selectivity (fold selective for SLO3) (hSLO1 [3]) [fold]	IC50 (human SLO3 [4]) [nM]	selectivity for SLO3 over hERG (hERG [5]) [fold]	selectivity for SLO3 over SLO1 (hSLO1 [6]) [fold]
O=C(CCCS(=O)(=O)c1ccc(Cl)cc1)N1CCC(Oc2nc3ccccc3s2)CC1 [VU0528254]	223	4.2	928	34000	153			
O=C(c1ccc(OCc2nc(C3CC3)cs2)cc1)N1CCN(c2ccc(C(F)(F)F)cn2)CC1 [VU0530373]	445	1.1	511	6380	14			
COc1ccc(SCC2CCN(C(=O)Cc3ccc(S(=O)(=O)C(C)C)cc3)CC2)cc1 [VU0546110]						1290	1.5	46
